{
  "source": "paper PMC4820889",
  "about": "(Journal of Biomedical Research, 2015)",
  "target": "ABCC1 (MRP1) (Homo sapiens, UniProt P33527)",
  "sequence (P33527 whole entry)": "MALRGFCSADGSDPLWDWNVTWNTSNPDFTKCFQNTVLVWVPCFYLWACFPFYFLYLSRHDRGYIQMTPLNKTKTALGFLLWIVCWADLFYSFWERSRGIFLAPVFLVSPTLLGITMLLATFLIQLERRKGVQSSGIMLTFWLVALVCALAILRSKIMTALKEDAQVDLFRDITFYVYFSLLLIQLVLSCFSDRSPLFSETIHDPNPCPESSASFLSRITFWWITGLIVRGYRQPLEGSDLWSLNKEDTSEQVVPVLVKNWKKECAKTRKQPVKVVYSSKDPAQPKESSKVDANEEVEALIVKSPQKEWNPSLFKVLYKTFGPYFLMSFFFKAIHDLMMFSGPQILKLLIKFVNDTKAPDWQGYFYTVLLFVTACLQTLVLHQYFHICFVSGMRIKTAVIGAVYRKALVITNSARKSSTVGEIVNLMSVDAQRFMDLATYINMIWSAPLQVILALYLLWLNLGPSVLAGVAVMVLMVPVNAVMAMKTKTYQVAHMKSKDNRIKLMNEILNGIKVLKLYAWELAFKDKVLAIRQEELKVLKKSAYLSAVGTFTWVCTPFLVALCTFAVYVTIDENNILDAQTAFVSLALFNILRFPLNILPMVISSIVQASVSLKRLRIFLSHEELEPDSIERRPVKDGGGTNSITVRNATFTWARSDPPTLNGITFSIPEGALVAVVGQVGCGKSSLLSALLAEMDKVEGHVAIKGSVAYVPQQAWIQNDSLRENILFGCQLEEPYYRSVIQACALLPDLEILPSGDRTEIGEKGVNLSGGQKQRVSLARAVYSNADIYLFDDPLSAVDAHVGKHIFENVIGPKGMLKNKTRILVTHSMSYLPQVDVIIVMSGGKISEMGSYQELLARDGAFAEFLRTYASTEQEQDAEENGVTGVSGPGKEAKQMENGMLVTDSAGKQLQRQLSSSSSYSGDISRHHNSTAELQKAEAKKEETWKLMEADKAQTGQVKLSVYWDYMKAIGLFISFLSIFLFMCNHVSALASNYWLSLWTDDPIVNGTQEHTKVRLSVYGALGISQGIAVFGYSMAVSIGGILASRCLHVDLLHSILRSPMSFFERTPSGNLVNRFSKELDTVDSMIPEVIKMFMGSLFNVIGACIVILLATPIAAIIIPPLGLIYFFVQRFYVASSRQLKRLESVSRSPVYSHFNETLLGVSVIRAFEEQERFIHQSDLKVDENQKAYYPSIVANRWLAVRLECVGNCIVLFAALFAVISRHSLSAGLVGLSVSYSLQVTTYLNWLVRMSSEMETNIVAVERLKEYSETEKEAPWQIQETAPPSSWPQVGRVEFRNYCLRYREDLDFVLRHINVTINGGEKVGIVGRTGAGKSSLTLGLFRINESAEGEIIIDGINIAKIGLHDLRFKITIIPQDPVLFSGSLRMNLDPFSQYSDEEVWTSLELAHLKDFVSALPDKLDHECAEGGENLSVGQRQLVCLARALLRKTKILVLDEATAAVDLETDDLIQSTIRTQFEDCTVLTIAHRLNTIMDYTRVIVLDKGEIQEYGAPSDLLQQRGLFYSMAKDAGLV",
  "data": [
    {"molecule": "CSc1ccc(/C=C2/C(C)=C(CC(=O)O)c3cc(F)ccc32)cc1", "note": "[SS, sulindac sulfide]", "values": [
      {"measurement": "IC50", "result": 5.6, "unit": "µM"}
    ]}
  ]
}
